Several values for one entry are separate records, joined by “and”; a condition that tells them apart may be missing. Equal values may be shown once. Where a name gives a salt, the structure may show the parent alone.
Target: PI3K-Delta (Homo sapiens, UniProt O00329)
Test: PI3K HTRF assay (PI3K Delta)
Assay type: biochemical
Details: PI3K-Delta 1.5 nM, 80 μM ATP, 10 μM PIP2 final, read-out: mean pIC50 in the PI3K Delta assay (converted)
Method: Biological Data PI3K HTRF Assay
The binding of compounds to PI3K-alpha/beta/delta/gamma is determined by homogeneous time resolved fluorescence (HTRF) assays as follows;
Briefly, solid compound is dissolved in 100% DMSO at a concentration of 2 mM. Dilutions are prepared in 100% DMSO using a 1 in 4 serial step dilution. The dilutions are transferred to black low volume Greiner assay plates ensuring that the DMSO concentration is constant across the plate at 1% (0.1 ul/well).
PI3K Reaction Buffer (contains 50 mM HEPES pH7.0 (NaOH), 150 mM NaCl, 10 mM MgCl2, 2.3 mM sodium cholate, 10 μM CHAPS made up in milliQ water). Fresh DTT is added at a final concentration of 1 mM on the day of use. Wortmannin at a concentration sufficient to produce 100% inhibition (8.33e-6 M) is added to column 18 of compound plates.
Enzyme solutions: 1× PI3K assay Buffer containing: • 550 pM PI3K-Alpha enzyme (275 pM final assay concentration) • 800 pM PI3K-Beta enzyme (400 pM final assay concentration) • 3 nM PI3K-Delta enzyme (1.5 nM final assay concentration) • 10 nM PI3K-Gamma enzyme (5 nM final assay concentration)
These concentrations are optimal to achieve a signal:background of between 1.5-4.5. The enzyme solution is added to columns 1-24 (3 ul/well) and plates are incubated for 15 minutes at room temperature.
Substrate solution: 1× PI3K assay buffer containing: • PI3K-Alpha: 500 μM ATP, 20 μM PIP2 and 120 nM biotin-PIP3. (Final assay concentrations are 250 μM ATP, 10 μM PIP2 (both at Km) and 40 nM biotin-PIP3) • PI3K-Beta: 800 μM ATP, 20 μM PIP2 and 120 nM biotin-PIP3. (Final assay concentrations are 400 μM ATP, 10 μM PIP2 (both at Km) and 40 nM biotin-PIP3) • PI3K-Delta: […], 20 μM PIP2 and 120 nM biotin-PIP3. (Final assay concentrations are 80 μM ATP, 10 μM PIP2 (both at Km) and 40 nM biotin-PIP3) • PI3K-Gamma: 30 μM ATP, 20 μM PIP2 and 120 nM biotin-PIP3.
This is added to all wells and plates are incubated for 1 hour at room temperature.
Detection solution: PI3K Detection Buffer (contains 50 mM HEPES pH7.0 (HCl), 150 mM NaCl, 2.3 mM sodium cholate, 10 μM CHAPS, 240 mM potassium fluoride) containing 2 mM DTT (2× final concentration), 90 nM GRP-1 PH domain, 300 nM Streptavidin-APC and 24 nM Europium-anti-GST (6× final concentrations)
This is mixed left at room temperature (protected from light).
STOP solution: PI3K STOP Buffer (contains 50 mM HEPES pH7.0 (HCl), 150 mM NaCl, 2.3 mM sodium cholate, 10 μM CHAPS, 150 mM EDTA).
Detection solution is diluted 1:1 with STOP solution and added to all wells (3 ul/well). Plates are covered and incubated on the bench for 45-60 minutes. Plates are read on a PerkinElmer Envision, measuring TR-FRET between the complex formed between the GST-tagged PH domain and biotinylated PIP3 which both recruit fluorophores (Europium-labelled anti-GST & Strep-APC respectively). […], this complex is disrupted by the competitive action of non-biotinylated PIP3 (formed in the assay by the phosphorylation of PIP2 by the kinase & ATP). From this, the ratio of acceptor/donor was calculated (Aex=317 nm, Aem donor=615 nm, em acceptor=665 nm) and used for data analysis.

PI3K-Delta, sequence (O00329 whole entry): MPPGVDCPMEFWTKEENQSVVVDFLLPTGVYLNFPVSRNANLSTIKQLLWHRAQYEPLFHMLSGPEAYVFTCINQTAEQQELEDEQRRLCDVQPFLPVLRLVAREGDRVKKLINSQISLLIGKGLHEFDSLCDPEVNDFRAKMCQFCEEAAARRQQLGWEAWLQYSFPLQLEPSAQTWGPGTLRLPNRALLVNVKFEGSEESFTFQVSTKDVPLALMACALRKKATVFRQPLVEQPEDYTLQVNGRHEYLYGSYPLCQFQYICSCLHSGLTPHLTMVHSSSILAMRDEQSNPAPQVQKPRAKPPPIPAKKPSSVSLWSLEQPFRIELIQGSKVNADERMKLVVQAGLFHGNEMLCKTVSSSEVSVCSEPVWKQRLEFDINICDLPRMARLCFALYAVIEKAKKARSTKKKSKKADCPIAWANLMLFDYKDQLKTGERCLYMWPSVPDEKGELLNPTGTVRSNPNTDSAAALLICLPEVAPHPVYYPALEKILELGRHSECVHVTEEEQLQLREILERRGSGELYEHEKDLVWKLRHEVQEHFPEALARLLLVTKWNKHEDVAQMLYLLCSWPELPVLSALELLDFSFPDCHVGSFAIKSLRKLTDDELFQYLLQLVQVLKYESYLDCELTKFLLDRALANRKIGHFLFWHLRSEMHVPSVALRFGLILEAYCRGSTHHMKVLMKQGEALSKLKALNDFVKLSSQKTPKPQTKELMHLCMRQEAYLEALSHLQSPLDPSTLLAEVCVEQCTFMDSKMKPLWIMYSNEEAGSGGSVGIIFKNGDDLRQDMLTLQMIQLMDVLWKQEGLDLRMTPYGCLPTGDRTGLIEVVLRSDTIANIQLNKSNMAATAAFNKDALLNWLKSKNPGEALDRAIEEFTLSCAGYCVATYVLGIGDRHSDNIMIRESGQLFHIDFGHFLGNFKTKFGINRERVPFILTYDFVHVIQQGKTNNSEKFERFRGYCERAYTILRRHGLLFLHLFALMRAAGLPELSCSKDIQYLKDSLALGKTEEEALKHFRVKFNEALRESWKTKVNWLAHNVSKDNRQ
PI3K-Delta, sequence (P27986 whole entry partner): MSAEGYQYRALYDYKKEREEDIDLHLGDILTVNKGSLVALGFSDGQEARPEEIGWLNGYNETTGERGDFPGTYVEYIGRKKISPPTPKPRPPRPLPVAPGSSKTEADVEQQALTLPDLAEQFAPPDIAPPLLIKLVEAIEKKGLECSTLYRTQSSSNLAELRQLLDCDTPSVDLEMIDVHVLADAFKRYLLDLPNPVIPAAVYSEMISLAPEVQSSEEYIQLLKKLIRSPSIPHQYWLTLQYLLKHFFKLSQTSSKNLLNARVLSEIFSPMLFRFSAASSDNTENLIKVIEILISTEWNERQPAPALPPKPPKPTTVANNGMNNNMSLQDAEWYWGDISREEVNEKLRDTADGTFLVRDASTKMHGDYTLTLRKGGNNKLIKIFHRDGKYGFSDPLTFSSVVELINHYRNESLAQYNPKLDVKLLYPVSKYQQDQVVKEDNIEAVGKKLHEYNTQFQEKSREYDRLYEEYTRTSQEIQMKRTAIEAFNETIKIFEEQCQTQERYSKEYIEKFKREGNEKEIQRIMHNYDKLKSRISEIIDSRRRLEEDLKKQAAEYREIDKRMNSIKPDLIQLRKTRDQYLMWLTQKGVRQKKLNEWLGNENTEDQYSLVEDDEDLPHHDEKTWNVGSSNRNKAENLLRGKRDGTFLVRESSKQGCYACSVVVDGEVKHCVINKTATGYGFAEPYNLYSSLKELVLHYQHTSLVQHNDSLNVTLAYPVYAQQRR

**Q.** Which IC50 does the source give for `CCC(C)N1CCN(Cc2ccc(-c3cc(NS(=O)(=O)c4cc(N5CCOCC5)cnc4OC)ccn3)cc2)CC1` (stereo not drawn) [Example 9] here?
**A.** ≤ 3.16 nM

**Q.** How did the IC50 turn out when `COc1ncc(N2CCOCC2)cc1S(=O)(=O)Nc1ccnc(-c2ccc(CN3CCN(C(C)C)CC3)cc2F)c1` [Example 1, N-(2-(2-Fluoro-4-((4-isopropylpiperazin-1-yl)methyl)phenyl)pyridin-4-yl)-2-methoxy-5-morpholinopyridine-3-sulfonamide] was run?
**A.** 1 nM and ≤ 3.16 nM

**Q.** For `COc1ncc(N2CCOCC2)cc1S(=O)(=O)Nc1ccnc(-c2c(F)cc(CN3CCN(C(C)C)CC3)cc2F)c1` [Example 8, N-(2-(2,6-Difluoro-4-((4-isopropylpiperazin-1-yl)methyl)phenyl)pyridin-4-yl)-2-methoxy-5-morpholinopyridine-3-sulfonamide], which IC50 is on record?
**A.** ≤ 3.16 nM

**Q.** How did the IC50 turn out when `COc1ncc(N2CCOCC2)cc1S(=O)(=O)Nc1ccnc(-c2ccc(CN3CCN(C4COC4)CC3)cc2)c1` [Example 13] was run?
**A.** ≤ 3.16 nM

**Q.** How did the IC50 turn out when `COc1ncc(N2CCOCC2)cc1S(=O)(=O)Nc1ccnc(-c2ccc(CN3CCOCC3)cc2)c1` [Example 24, 2-Methoxy-5-morpholino-N-(2-(4-(morpholinomethyl)phenyl)pyridin-4-yl)pyridine-3-sulfonamide] was run?
**A.** ≤ 3.16 nM

**Q.** Which IC50 does the source give for `COc1ncc(N2CCOCC2)cc1S(=O)(=O)Nc1ccnc(-c2ccc(CN3CCN(C4CCC4)CC3)cc2)c1` [Example 7] here?
**A.** ≤ 3.16 nM

**Q.** How did the IC50 turn out when `COc1ncc(N2CCOCC2)cc1S(=O)(=O)Nc1ccnc(-c2cc(F)c(CN3CCN(C(C)C)CC3)cc2F)c1` [Example 17, N-(2-(2,5-Difluoro-4-((4-isopropylpiperazin-1-yl)methyl)phenyl)pyridin-4-yl)-2-methoxy-5-morpholinopyridine-3-sulfonamide] was run?
**A.** ≤ 3.16 nM

**Q.** `COc1ncc(N2CCOCC2)cc1S(=O)(=O)Nc1ccnc(-c2ccc(CN3CCN(C(C)C)CC3)cc2)c1` [Example 3, N-(2-(4-((4-Isopropylpiperazin-1-yl)methyl)phenyl)pyridin-4-yl)-2-methoxy-5-morpholinopyridine-3-sulfonamide] was tested. Which IC50 did it give?
**A.** ≤ 3.16 nM

**Q.** `COCCN1CCN(Cc2ccc(-c3cc(NS(=O)(=O)c4cc(N5CCOCC5)cnc4OC)ccn3)c(F)c2)CC1` [Example 18, N-(2-(2-Fluoro-4-((4-(2-methoxyethyl)piperazin-1-yl)methyl)phenyl)pyridin-4-yl)-2-methoxy-5-morpholinopyridine-3-sulfonamide, 1.2 formic acid salt] was tested. Which IC50 did it give?
**A.** ≤ 3.16 nM

**Q.** For `CCOc1ncc(N2CCOCC2)cc1S(=O)(=O)Nc1ccnc(-c2ccc(CN3C[C@@H](C)O[C@@H](C)C3)cc2F)c1` [Example 37, Rac-N-(2-(4-(((2S,6R)-2,6-dimethylmorpholino)methyl)-2-fluorophenyl)pyridin-4-yl)-2-ethoxy-5-morpholinopyridine-3-sulfonamide], which IC50 is on record?
**A.** ≤ 3.16 nM

**Q.** How did the IC50 turn out when `COc1ncc(N2CCOCC2)cc1S(=O)(=O)Nc1ccnc(-c2cc(F)c(CN3CCN(C(C)C)CC3)c(F)c2)c1` [Example 12, N-(2-(3,5-Difluoro-4-((4-isopropylpiperazin-1-yl)methyl)phenyl)pyridin-4-yl)-2-methoxy-5-morpholinopyridine-3-sulfonamide] was run?
**A.** ≤ 3.16 nM

**Q.** For `COc1ncc(N2CCOCC2)cc1S(=O)(=O)Nc1ccnc(-c2ccc(CN3CCCCC3)cc2F)c1` [Example 21, N-(2-(2-fluoro-4-(piperidin-1-ylmethyl)phenyl)pyridin-4-yl)-2-methoxy-5-morpholinopyridine-3-sulfonamide], which IC50 is on record?
**A.** ≤ 3.16 nM

**Q.** `COc1ncc(N2CCOCC2)cc1S(=O)(=O)Nc1ccnc(-c2ccc(CN3C[C@@H](C)O[C@@H](C)C3)cc2F)c1` [Example 36, Rac-N-(2-(4-(((2S,6R)-2,6-dimethylmorpholino)methyl)-2-fluorophenyl)pyridin-4-yl)-2-methoxy-5-morpholinopyridine-3-sulfonamide] was tested. Which IC50 did it give?
**A.** ≤ 3.16 nM

**Q.** `COc1ncc(N2CCOCC2)cc1S(=O)(=O)Nc1ccnc(-c2cc(Cl)c(CN3CCN(C(C)C)CC3)cc2F)c1` [Example 35, N-(2-(5-Chloro-2-fluoro-4-((4-isopropylpiperazin-1-yl)methyl)phenyl)pyridin-4-yl)-2-methoxy-5-morpholinopyridine-3-sulfonamide] was tested. Which IC50 did it give?
**A.** ≤ 3.16 nM

**Q.** With `CN(C)c1ncc(N2CCOCC2)cc1S(=O)(=O)Nc1ccnc(-c2ccc(CN3CCN(C(C)(C)C)CC3)cc2F)c1` [Example 27, N-(2-(4-((4-(tert-Butyl)piperazin-1-yl)methyl)-2-fluorophenyl)pyridin-4-yl)-2-(dimethylamino)-5-morpholinopyridine-3-sulfonamide] as the molecule, how does the IC50 read?
**A.** ≤ 3.16 nM

**Q.** Which IC50 does the source give for `COc1ncc(N2CCOCC2)cc1S(=O)(=O)Nc1ccnc(-c2ccc(CN3CCN(C4COC4)CC3)cc2F)c1` [Example 15, N-(2-(2-Fluoro-4-((4-(oxetan-3-yl)piperazin-1-yl)methyl)phenyl)pyridin-4-yl)-2-methoxy-5-morpholinopyridine-3-sulfonamide, 3 formic acid salt] here?
**A.** ≤ 3.16 nM

**Q.** How did the IC50 turn out when `COc1ncc(N2CCOCC2)cc1S(=O)(=O)Nc1ccnc(-c2ccc(CN3CCC(C(C)(C)O)CC3)cc2F)c1` [Example 22] was run?
**A.** ≤ 3.16 nM

**Q.** Which IC50 does the source give for `COc1ncc(N2CCOCC2)cc1S(=O)(=O)Nc1ccnc(-c2ccc(CN3CCN(C(C)C)CC3)c(F)c2F)c1` [Example 14, N-(2-(2,3-Difluoro-4-((4-isopropylpiperazin-1-yl)methyl)phenyl)pyridin-4-yl)-2-methoxy-5-morpholinopyridine-3-sulfonamide] here?
**A.** ≤ 3.16 nM

**Q.** `CC(C)N1CCN(Cc2ccc(-c3cc(NS(=O)(=O)c4cc(N5CCOCC5)cnc4N(C)C)ccn3)c(F)c2)CC1` [Example 26, 2-(Dimethylamino)-N-(2-(2-fluoro-4-((4-isopropylpiperazin-1-yl)methyl)phenyl)pyridin-4-yl)-5-morpholinopyridine-3-sulfonamide] was tested. Which IC50 did it give?
**A.** ≤ 3.16 nM

**Q.** `COc1ncc(N2CCOCC2)cc1S(=O)(=O)Nc1ccnc(-c2ccc(CN3CCN(C(C)C)CC3)c(F)c2)c1` [Example 5, N-(2-(3-Fluoro-4-((4-isopropylpiperazin-1-yl)methyl)phenyl)pyridin-4-yl)-2-methoxy-5-morpholinopyridine-3-sulfonamide] was tested. Which IC50 did it give?
**A.** ≤ 3.16 nM

**Q.** Which IC50 does the source give for `COc1ncc(N2CCOCC2)cc1S(=O)(=O)Nc1ccnc(-c2ccc(CN3C[C@@H](C)O[C@@H](C)C3)cc2)c1` [Example 23, N-(2-(4-(((cis)-2,6-Dimethylmorpholino)methyl)phenyl)pyridin-4-yl)-2-methoxy-5-morpholinopyridine-3-sulfonamide] here?
**A.** ≤ 3.16 nM

**Q.** For `COc1ncc(N2CCOCC2)cc1S(=O)(=O)Nc1ccnc(-c2ccc(CN3CCC(C)C3)cc2F)c1` (stereo not drawn) [Example 19, N-(2-(2-fluoro-4-((3-methylpyrrolidin-1-yl)methyl)phenyl)pyridin-4-yl)-2-methoxy-5-morpholinopyridine-3-sulfonamide], which IC50 is on record?
**A.** ≤ 3.16 nM

**Q.** How did the IC50 turn out when `COc1ncc(N2CCOCC2)cc1S(=O)(=O)Nc1ccnc(-c2ccc(CN3CCN(C(C)(C)C)CC3)cc2)c1` [Example 6, N-(2-(4-((4-(tert-Butyl)piperazin-1-yl)methyl)phenyl)pyridin-4-yl)-2-methoxy-5-morpholinopyridine-3-sulfonamide] was run?
**A.** ≤ 3.16 nM

**Q.** `COc1ncc(N2CCOCC2)cc1S(=O)(=O)Nc1ccnc(-c2ccc(CN3CCN(C(C)(C)C)CC3)cc2F)c1` [Example 2, N-(2-(4-((4-(tert-Butyl)piperazin-1-yl)methyl)-2-fluorophenyl)pyridin-4-yl)-2-methoxy-5-morpholinopyridine-3-sulfonamide] was tested. Which IC50 did it give?
**A.** ≤ 3.16 nM
